# Source: US20140155471A1, “TREATING NEUROLOGICAL DISEASE OR INJURY WITH A DYNAMIN-RELATED PROTEIN 1 (DRP1) ENCODING NUCLEIC ACID” (UNIVERSITY OF ROCHESTER, priority 2011, published 2014)
# Tests used:
# [1] = target: T1, mouse dopamine transporter (Mus musculus, UniProt Q61327); assay: Transport studies in cells overexpressing dopamine transporter (MPP+ or DA uptake); format: cell-based; settings: stable cells overexpressing DAT; substrates MPP+ or DA; mdivi-1 1 or 10 μM
# T1 construct: expressed in transfected cells; host or cells: EM4 cells / HEK 293 cells stably transfected with macrophage scavenger receptor
# T1 sequence (Q61327 whole entry): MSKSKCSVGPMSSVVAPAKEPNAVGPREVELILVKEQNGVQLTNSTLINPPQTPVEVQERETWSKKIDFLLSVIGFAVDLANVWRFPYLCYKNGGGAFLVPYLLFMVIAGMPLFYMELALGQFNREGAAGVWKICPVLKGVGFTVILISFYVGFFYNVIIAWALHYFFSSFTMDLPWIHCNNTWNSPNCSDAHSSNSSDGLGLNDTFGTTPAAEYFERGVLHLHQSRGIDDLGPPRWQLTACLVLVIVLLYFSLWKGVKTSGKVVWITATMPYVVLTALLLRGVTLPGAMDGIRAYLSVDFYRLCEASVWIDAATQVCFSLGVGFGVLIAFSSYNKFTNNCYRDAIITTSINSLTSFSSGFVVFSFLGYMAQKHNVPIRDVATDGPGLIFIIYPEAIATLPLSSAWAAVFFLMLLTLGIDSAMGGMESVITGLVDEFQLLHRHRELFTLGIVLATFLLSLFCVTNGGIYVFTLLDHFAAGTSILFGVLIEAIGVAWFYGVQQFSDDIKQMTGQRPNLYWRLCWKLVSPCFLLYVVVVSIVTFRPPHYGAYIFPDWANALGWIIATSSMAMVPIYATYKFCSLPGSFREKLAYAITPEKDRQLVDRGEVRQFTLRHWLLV
# Experimental: EM4 cells and human embryonic kidney (HEK 293) cells stably transfected with macrophage scavenger to increase their adherence to tissue culture plastic, overexpressing mouse dopamine transporter or empty vector control were grown in 24-well plates. These cells were washed twice and then preincubated for 20 min at 37° C. in Krebs Ringer Hepes (KRH) buffer (125 mM NaCl, 25 mM HEPES, 5.6 mM glucose, 4.8 mM KCl, 1.2 mM KH2PO4, 1.2 mM CaCl2, 1.2 mM MgSO4, pH 7.4), in the presence or absence of mdivi-1 (1, or 10 μM) or GBR12909 (1 μM). This buffer was then replaced with KRH plus or minus MPP+ (200 μM) or dopamine (100 μM), in the presence or absence of mdivi-1 (1, or 10 μM) or GBR12909 (1 μM) for 30 min. To stop the reaction, cells were rinsed with ice-cold buffer and then immediately removed in 5% trichloroacetic acid, sonicated and centrifuged at 15,000 at 4° C. […]. Supernatant was collected for MPP+ and DA quantification using HPLC. Cell pellet was measured for protein concentration using the BCA assay.
# MPTP mouse model of PD [2] = assay: MPTP mouse model, neurorescue (treatment 7 days after last MPTP injection); format: in vivo, C57BL/6 mice; settings: mdivi-1 i.p. twice daily for 3 days starting 7 days after last MPTP injection
# Experimental: (§1) For all studies, 10-12 week old male C57BL/6 mice were randomly assigned to receive intraperitoneal injections of either MPTP (25 mg/kg, Sigma, St. Louis, Mo.) or saline once daily for 5 days. For the neuroprotection studies, mice received twice daily i.p. injections (20 mg/kg) with mdivi-1 beginning on the day of the first MPTP injection and continued until mice were sacrificed 7 days after last MPTP injection. For the neurorescue studies, mice received twice daily i.p. injections (20 mg/kg) with mdivi-1 beginning 7 days after the last MPTP injection and continued for a total of 3 days. To maximize the data yielded from each animal, mice were sacrificed by decapitation and the freshly removed brains were divided into 3 pieces for separate measures of nigrostriatal damage. […]
# (§2) Brains from saline and MPTP treated mice were sectioned (30 μm) and processed for stereological cell counts using the optical fractionator method as described 35. Striatal optical densities of TH immunoreactivity were also quantified.
# Stereotactic implantation of guide cannula was performed under ketamine/xylazine (65/6 mg/kg i.p.) anesthesia using the following striatal coordinates, relative to bregma: anterior-posterior +0.5 mm, lateral −2.0 mm, dorsal-ventral −1.5 mm (from surface of brain). […] Samples from the same animals were measured for the contents of mdivi-1, MPP+, DA, and its metabolites. […]
# MPTP mouse model of PD [3] = assay: MPTP mouse model, neuroprotection (active neurodegeneration); format: in vivo, C57BL/6 mice; settings: mdivi-1 delivered together with MPTP
# Experimental: as §1, with “days.” for “days. To maximize the data yielded from each animal, mice were sacrificed by decapitation and the freshly removed brains were divided into 3 pieces for separate measures of nigrostriatal damage.”
# as §2
# (§3) A 12-channel CoulArray® (ESA Inc., Chelmsford, Mass.) equipped with a highly sensitive amperometric microbore cell (model 5041, ESA Inc.) was used to analyze the content of DA and its metabolites with the cell potential set at +220 mV as described in Cui et al. For measurements of total striatal DA content, mice were sacrificed and their striata were dissected out and stored at −80° C. until analysis. […] Peaks were detected by an ESA 8 Channel CoulArray® system. […]
# [4] = In vivo microdialysis and HPLC of mdivi-1 in striatal dialysate (blood-brain barrier crossing); parameters: species or system mice
# Experimental: Stereotactic implantation of guide cannula was performed under ketamine/xylazine (65/6 mg/kg i.p.) anesthesia using the following striatal coordinates, relative to bregma: anterior-posterior +0.5 mm, lateral −2.0 mm, dorsal-ventral −1.5 mm (from surface of brain). […] Samples from the same animals were measured for the contents of mdivi-1, MPP+, DA, and its metabolites. Levels of these molecules and the amount of KCl (delivered to the striatum) were calculated on the basis of the standard curves, probe efficiency (˜8%), flow rate, and duration of sample collection as described in Cui et al. “The organic cation transporter-3 is a pivotal modulator of neurodegeneration in the nigrostriatal dopaminergic pathway,” PNAS USA 106: 8043-8048 (2009).
# as §3
# The ability of Mitochondrial Division Inhibitor-1 (mdivi-1), a Drp1 inhibitor, to cross the blood-brain barrier was assessed. […]
# Pink1-/- mice = assay: Depolarization (KCl)-evoked striatal DA overflow by in vivo microdialysis in Pink1-/- and Pink1+/+ mice; settings: mdivi-1 i.p. twice daily for 3 days
# Experimental: Stereotactic implantation of guide cannula was performed under ketamine/xylazine (65/6 mg/kg i.p.) anesthesia using the following striatal coordinates, relative to bregma: anterior-posterior +0.5 mm, lateral −2.0 mm, dorsal-ventral −1.5 mm (from surface of brain). Twenty-four hours after recovery from surgery, a microdialysis probe (2-mm membrane, Bioanalytical Systems, Inc., West Lafayette, Ind.) was inserted into the guide cannula and connected to a low torque-dual channel swivel (Instech Laboratories, Inc., Plymouth Meeting, Pa.) which was connected to a syringe pump perfusing with artificial cerebrospinal fluid (aCSF) at 2 μL/min for all studies except mdivi-1 pharmacokinetic studies where the flow rate was 1 μL/min. […] Samples from the same animals were measured for the contents of mdivi-1, MPP+, DA, and its metabolites.
structure (smiles),measurement,setting,value
"COc1cc(-n2c(S)nc3ccccc3c2=O)c(Cl)cc1Cl [mdivi-1, 3-(2,4-dichloro-5-methoxyphenyl)-2-sulfanyl-4(3H)-quinazolinone]",transport activity of DAT,[1],did not affect
same,evoked DA overflow in MPTP-lesioned mice,MPTP mouse model of PD [2],improved
same,regeneration of nigral DA neurons terminals or total DA content,MPTP mouse model of PD [2],absence of promoting regeneration
same,MPTP induced-loss of dopaminergic cell body terminals and DA content,MPTP mouse model of PD [3],significantly prevented
same,time of peak of mdivi-1 in striatal dialysate,[4]; after an i.p. injection,3 h
same,mdivi-1 in the striatal dialysate (ability to cross the blood-brain barrier),"[4]; after i.p. injection, in vivo microdialysis, HPLC",detected
same,evoked DA overflow in Pink1-/- mice,"Pink1-/- mice; 12 month old Pink1-/- mice, high-KCl aCSF",complete restoration
same,level of evoked DA release in Pink1+/+ mice,Pink1-/- mice; Pink1+/+ mice,did not alter
